Test results as given in ChEMBL document CHEMBL6127085, “Design, synthesis and evaluation of novel LpxC inhibitors containing a hydrazone moiety as Gram-negative antibacterial agents” (Eur J Med Chem, 2024).
≈ marks a conversion by molar mass, not a printed value.

What was measured:
Escherichia coli = test: Antibacterial activity against Escherichia coli ATCC25922 assessed as reduction in bacterial growth measured after 18 to 24 hrs by CLSI protocol based method; assay type: functional; settings: time 18-24 hrs
Pseudomonas aeruginosa [1] = test: Antibacterial activity against Pseudomonas aeruginosa ATCC27853 assessed as reduction in bacterial growth measured after 18 to 24 hrs by CLSI protocol based method; assay type: functional; settings: time 18-24 hrs
Pseudomonas aeruginosa [2] = test: Antibacterial activity against Pseudomonas aeruginosa clinical isolate PAE22-1 assessed as reduction in bacterial growth measured after 18 to 24 hrs by CLSI protocol based method; assay type: functional; settings: time 18-24 hrs
Klebsiella pneumoniae [3] = test: Antibacterial activity against Klebsiella pneumoniae ATCC700603 assessed as reduction in bacterial growth measured after 18 to 24 hrs by CLSI protocol based method; assay type: functional; settings: time 18-24 hrs
Klebsiella pneumoniae [4] = test: Antibacterial activity against Klebsiella pneumoniae clinical isolate KPN+22-1 assessed as reduction in bacterial growth measured after 18 to 24 hrs by CLSI protocol based method; assay type: functional; settings: time 18-24 hrs
[5] = Metabolic stability in human liver microsomes assessed as half life at 1 uM preincubated for 5 mins followed by NADPH addition and measured after 5 to 60 mins by LC-MS analysis; assay type: ADME, Microsome; settings: liver microsomes, time 10-65 min
[6] = Metabolic stability in rat liver microsomes assessed as half life at 1 uM preincubated for 5 mins followed by NADPH addition and measured after 5 to 60 mins by LC-MS analysis; assay type: ADME, Microsome; settings: liver microsomes, time 10-65 min
[7] = Metabolic stability in mouse liver microsomes assessed as half life at 1 uM preincubated for 5 mins followed by NADPH addition and measured after 5 to 60 mins by LC-MS analysis; assay type: ADME, Microsome; settings: liver microsomes, time 10-65 min
[8] = Metabolic stability in human liver microsomes assessed as intrinsic clearance at 1 uM preincubated for 5 mins followed by NADPH addition and measured after 5 to 60 mins by LC-MS analysis; assay type: ADME, Microsome; settings: time 10-65 min, read-out: CLH
[9] = Metabolic stability in rat liver microsomes assessed as intrinsic clearance at 1 uM preincubated for 5 mins followed by NADPH addition and measured after 5 to 60 mins by LC-MS analysis; assay type: ADME, Microsome; settings: liver microsomes, time 10-65 min, read-out: CLH
[10] = Metabolic stability in mouse liver microsomes assessed as intrinsic clearance at 1 uM preincubated for 5 mins followed by NADPH addition and measured after 5 to 60 mins by LC-MS analysis; assay type: ADME, Microsome; settings: liver microsomes, time 10-65 min, read-out: CLH
[11] = Intrinsic clearance in human; assay type: ADME; settings: read-out: CLH
[12] = Intrinsic clearance in rat; assay type: ADME; settings: read-out: CLH
[13] = Intrinsic clearance in mouse; assay type: ADME, organism-based; settings: read-out: CLH

Row | MIC (Escherichia coli) | MIC (Pseudomonas aeruginosa [1]) | MIC (Pseudomonas aeruginosa [2]) | MIC (Klebsiella pneumoniae [3]) | MIC (Klebsiella pneumoniae [4]) | half-life at 1 µM [5] | half-life at 1 µM [6] | half-life at 1 µM [7] | microsomal CLint at 1 µM [8] | microsomal CLint at 1 µM [9] | microsomal CLint at 1 µM [10] | CLint scaled [11] | CLint scaled [12] | CLint scaled [13] | SMILES
1 | 0.03 µg/mL (≈ 0.0593 µM) | 4 µg/mL (≈ 7.91 µM) | 4 µg/mL (≈ 7.91 µM) | 16 µg/mL (≈ 31.6 µM) | 2 µg/mL (≈ 3.96 µM) | 5.15 h | 3.5 h | 3.37 h | 4.51 µL/min/mg | 6.7 µL/min/mg | 7.23 µL/min/mg | 4.26 mL/min/kg | 12.1 mL/min/kg | 28.5 mL/min/kg | CCC(=O)N1CCN(/N=C/c2ccc(C#Cc3ccc(C(=O)N[C@H](C(=O)NO)[C@@H](C)O)cc3)cc2)CC1
2 | 1 µg/mL (≈ 1.82 µM) | > 64 µg/mL | 16 µg/mL (≈ 29.1 µM) | > 64 µg/mL | 8 µg/mL (≈ 14.6 µM) |  |  |  |  |  |  |  |  |  | C[C@@H](O)[C@H](NC(=O)c1ccc(C#Cc2ccc(/C=N/N3CCN(C(=O)OC(C)(C)C)CC3)cc2)cc1)C(=O)NO
3 | 0.5 µg/mL (≈ 0.96 µM) | 8 µg/mL (≈ 15.4 µM) | 4 µg/mL (≈ 7.68 µM) | 16 µg/mL (≈ 30.7 µM) | 2 µg/mL (≈ 3.84 µM) |  |  |  |  |  |  |  |  |  | C[C@@H](O)[C@H](NC(=O)c1ccc(C#Cc2ccc(/C=N/N3CCN(C(=O)N(C)C)CC3)cc2)cc1)C(=O)NO
4 | 1 µg/mL (≈ 2.16 µM) | 2 µg/mL (≈ 4.31 µM) | 2 µg/mL (≈ 4.31 µM) | 8 µg/mL (≈ 17.3 µM) | 2 µg/mL (≈ 4.31 µM) |  |  |  |  |  |  |  |  |  | C[C@@H](O)[C@H](NC(=O)c1ccc(C#Cc2ccc(/C=N/N3CCN(C)CC3)cc2)cc1)C(=O)NO
5 | 0.25 µg/mL (≈ 0.468 µM) | > 32 µg/mL | > 32 µg/mL | > 32 µg/mL | 8 µg/mL (≈ 15 µM) | 1.37 h | 1.48 h | 2.53 h | 19.4 µL/min/mg | 15.6 µL/min/mg | 9.29 µL/min/mg | 18.4 mL/min/kg | 28.1 mL/min/kg | 36.6 mL/min/kg | C[C@@H](O)[C@H](NC(=O)c1ccc(C#Cc2ccc(/C=N/N3CCN(C(=O)C(C)(C)C)CC3)cc2)cc1)C(=O)NO

Further lines, the compound ahead of its results:

Row | SMILES | MIC (Escherichia coli) | MIC (Pseudomonas aeruginosa [1]) | MIC (Pseudomonas aeruginosa [2]) | MIC (Klebsiella pneumoniae [3]) | MIC (Klebsiella pneumoniae [4]) | half-life at 1 µM [5] | half-life at 1 µM [6] | half-life at 1 µM [7] | microsomal CLint at 1 µM [8] | microsomal CLint at 1 µM [9] | microsomal CLint at 1 µM [10] | CLint scaled [11] | CLint scaled [12] | CLint scaled [13]
6 | C[C@@H](O)[C@H](NC(=O)c1ccc(C#Cc2ccc(/C=N/N3CCN(S(C)(=O)=O)CC3)cc2)cc1)C(=O)NO | 0.5 µg/mL (≈ 0.948 µM) | > 64 µg/mL | > 64 µg/mL | > 64 µg/mL | > 64 µg/mL |  |  |  |  |  |  |  |  | 
7 | O=C(NO)C1CN(c2ccc(C#Cc3ccc(/C=N/N4CCCC4)cc3)cc2)C(=O)O1 (stereo not drawn) | > 64 µg/mL |  | > 64 µg/mL |  | > 64 µg/mL |  |  |  |  |  |  |  |  | 
8 | C[C@@H](O)[C@H](NC(=O)c1ccc(C#Cc2ccc(/C=N/N3CCS(=O)(=O)CC3)cc2)cc1)C(=O)NO | 1 µg/mL (≈ 2.01 µM) | 4 µg/mL (≈ 8.02 µM) | 4 µg/mL (≈ 8.02 µM) | 16 µg/mL (≈ 32.1 µM) | 4 µg/mL (≈ 8.02 µM) |  |  |  |  |  |  |  |  | 
9 | C[C@@H](O)[C@H](NC(=O)c1ccc(C#Cc2ccc(/C=N/N3CCN(C4CCCC4)CC3)cc2)cc1)C(=O)NO | 2 µg/mL (≈ 3.86 µM) | > 64 µg/mL | 32 µg/mL (≈ 61.8 µM) | > 64 µg/mL | 32 µg/mL (≈ 61.8 µM) |  |  |  |  |  |  |  |  | 
10 | C[C@@H](O)[C@H](NC(=O)c1ccc(C#Cc2ccc(/C=N/N3CCCCC3)cc2)cc1)C(=O)NO | 0.25 µg/mL (≈ 0.557 µM) | 32 µg/mL (≈ 71.3 µM) | 4 µg/mL (≈ 8.92 µM) | 32 µg/mL (≈ 71.3 µM) | 1 µg/mL (≈ 2.23 µM) |  |  |  |  |  |  |  |  | 
11 | C[C@@H](O)[C@H](NC(=O)c1ccc(C#Cc2ccc(/C=N/N3CCCC3)nc2)cc1)C(=O)NO | 2 µg/mL (≈ 4.59 µM) | > 64 µg/mL | 4 µg/mL (≈ 9.19 µM) |  | > 64 µg/mL |  |  |  |  |  |  |  |  | 
12 | CCOC(=O)N1CCN(/N=C/c2ccc(C#Cc3ccc(C(=O)N[C@H](C(=O)NO)[C@@H](C)O)cc3)cn2)CC1 | 2 µg/mL (≈ 3.83 µM) | 16 µg/mL (≈ 30.6 µM) | 8 µg/mL (≈ 15.3 µM) | > 64 µg/mL | 32 µg/mL (≈ 61.2 µM) |  |  |  |  |  |  |  |  | 
13 | O=C(NO)C1CN(c2ccc(C#Cc3ccc(/C=N/N4CCOCC4)cc3)cc2)C(=O)O1 (stereo not drawn) | 1 µg/mL (≈ 2.3 µM) |  | > 64 µg/mL |  | 8 µg/mL (≈ 18.4 µM) |  |  |  |  |  |  |  |  | 
